ChEMBL document CHEMBL1124620, “New 1,4-dihydropyridine derivatives combining calcium antagonism and alpha-adrenolytic properties” (J Med Chem, 1989)

Columns and labels:
[1] = molecular target: T1, Adrenergic receptor alpha-1 (Rattus norvegicus, UniProt P15823+P23944+P43140); test: Alpha-1-adrenolytic activity was assessed from the ability to inhibit [3H]prazosin binding to rat cerebral cortex preparation; assay type: tissue-based
T1 sequence (P15823 whole entry): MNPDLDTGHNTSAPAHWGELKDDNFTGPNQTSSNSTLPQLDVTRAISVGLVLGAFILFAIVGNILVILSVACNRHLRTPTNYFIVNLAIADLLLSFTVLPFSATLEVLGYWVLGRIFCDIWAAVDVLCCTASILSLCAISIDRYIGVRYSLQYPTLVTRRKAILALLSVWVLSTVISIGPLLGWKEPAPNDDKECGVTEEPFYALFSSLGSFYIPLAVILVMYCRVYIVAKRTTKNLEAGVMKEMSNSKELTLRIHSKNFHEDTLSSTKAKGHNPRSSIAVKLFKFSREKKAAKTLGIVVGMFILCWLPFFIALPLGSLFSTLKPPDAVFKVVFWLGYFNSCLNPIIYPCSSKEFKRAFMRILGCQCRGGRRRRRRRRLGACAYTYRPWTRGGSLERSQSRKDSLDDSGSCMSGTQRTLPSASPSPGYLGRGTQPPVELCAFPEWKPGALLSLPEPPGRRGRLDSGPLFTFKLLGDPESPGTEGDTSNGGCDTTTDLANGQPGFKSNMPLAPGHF
T1 sequence (P23944 whole entry): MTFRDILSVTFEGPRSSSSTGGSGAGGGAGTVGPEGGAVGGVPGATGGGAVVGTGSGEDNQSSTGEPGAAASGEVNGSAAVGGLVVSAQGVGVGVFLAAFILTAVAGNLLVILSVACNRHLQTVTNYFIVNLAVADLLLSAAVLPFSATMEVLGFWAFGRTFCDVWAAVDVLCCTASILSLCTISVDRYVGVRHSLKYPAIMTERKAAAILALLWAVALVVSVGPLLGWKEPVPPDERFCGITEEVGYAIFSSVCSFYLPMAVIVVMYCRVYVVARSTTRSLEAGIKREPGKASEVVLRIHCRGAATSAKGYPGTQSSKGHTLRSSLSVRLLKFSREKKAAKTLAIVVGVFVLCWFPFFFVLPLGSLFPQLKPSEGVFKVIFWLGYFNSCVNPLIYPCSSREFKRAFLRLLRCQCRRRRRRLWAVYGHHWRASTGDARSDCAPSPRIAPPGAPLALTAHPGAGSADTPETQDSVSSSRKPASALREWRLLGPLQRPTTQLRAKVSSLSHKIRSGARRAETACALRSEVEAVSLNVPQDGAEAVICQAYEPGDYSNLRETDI
T1 sequence (P43140 whole entry): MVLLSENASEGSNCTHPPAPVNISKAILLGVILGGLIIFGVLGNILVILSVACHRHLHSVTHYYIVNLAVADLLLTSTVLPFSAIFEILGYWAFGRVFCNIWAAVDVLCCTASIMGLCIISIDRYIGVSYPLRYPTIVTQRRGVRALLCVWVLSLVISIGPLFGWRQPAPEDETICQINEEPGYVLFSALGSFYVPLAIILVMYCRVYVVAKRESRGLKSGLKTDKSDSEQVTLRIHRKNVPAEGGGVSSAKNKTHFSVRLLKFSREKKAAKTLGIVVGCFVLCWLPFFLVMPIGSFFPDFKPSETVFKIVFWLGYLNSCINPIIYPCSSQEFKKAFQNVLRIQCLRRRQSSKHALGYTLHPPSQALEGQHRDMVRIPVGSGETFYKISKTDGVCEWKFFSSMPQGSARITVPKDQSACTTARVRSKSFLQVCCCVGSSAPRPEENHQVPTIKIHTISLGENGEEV

[2] = species on record: Rattus norvegicus; test: Calcium antagonistic activity was evaluated by in vitro inhibition of [3H]nitrendipine binding on rat cerebral cortex; assay type: functional
[3] = molecular target: T1, Adrenergic receptor alpha-1; test: Alpha-1-adrenolytic activity was assessed in vitro from the ability to inhibit norepinephrine-induced contraction of rat aorta preparation
[4] = molecular target: T2, Adrenergic receptor alpha-2 (Homo sapiens, UniProt P08913+P18825+P18089); test: Alpha-2-adrenolytic activity was assessed in vitro from the ability to inhibit norepinephrine binding to guinea pig vas deferens; design: species or system Cavia porcellus; conditions: target entry is the homologue from another species
T2 sequence (P08913 whole entry): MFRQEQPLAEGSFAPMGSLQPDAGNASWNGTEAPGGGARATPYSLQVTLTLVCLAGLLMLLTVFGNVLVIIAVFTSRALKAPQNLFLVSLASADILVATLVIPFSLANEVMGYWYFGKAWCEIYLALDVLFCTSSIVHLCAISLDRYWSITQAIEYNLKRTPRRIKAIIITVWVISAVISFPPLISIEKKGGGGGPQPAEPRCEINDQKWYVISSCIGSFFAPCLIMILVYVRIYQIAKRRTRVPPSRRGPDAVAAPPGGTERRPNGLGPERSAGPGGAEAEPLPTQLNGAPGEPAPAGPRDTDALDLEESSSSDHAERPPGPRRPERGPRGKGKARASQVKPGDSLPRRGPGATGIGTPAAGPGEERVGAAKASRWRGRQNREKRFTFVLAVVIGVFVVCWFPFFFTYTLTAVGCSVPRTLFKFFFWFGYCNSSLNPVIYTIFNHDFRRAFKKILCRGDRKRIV
T2 sequence (P18825 whole entry): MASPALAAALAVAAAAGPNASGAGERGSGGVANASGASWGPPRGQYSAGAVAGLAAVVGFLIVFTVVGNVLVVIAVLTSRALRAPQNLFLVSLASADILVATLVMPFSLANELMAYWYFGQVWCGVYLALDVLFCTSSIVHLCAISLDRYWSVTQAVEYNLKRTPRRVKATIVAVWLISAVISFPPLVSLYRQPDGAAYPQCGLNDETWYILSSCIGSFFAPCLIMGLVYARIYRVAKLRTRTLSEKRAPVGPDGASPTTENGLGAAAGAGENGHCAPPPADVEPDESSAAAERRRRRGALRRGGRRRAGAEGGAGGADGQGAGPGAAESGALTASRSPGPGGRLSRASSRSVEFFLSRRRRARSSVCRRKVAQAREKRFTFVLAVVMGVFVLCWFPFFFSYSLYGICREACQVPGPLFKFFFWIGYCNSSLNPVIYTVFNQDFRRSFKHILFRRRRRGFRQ
T2 sequence (P18089 whole entry): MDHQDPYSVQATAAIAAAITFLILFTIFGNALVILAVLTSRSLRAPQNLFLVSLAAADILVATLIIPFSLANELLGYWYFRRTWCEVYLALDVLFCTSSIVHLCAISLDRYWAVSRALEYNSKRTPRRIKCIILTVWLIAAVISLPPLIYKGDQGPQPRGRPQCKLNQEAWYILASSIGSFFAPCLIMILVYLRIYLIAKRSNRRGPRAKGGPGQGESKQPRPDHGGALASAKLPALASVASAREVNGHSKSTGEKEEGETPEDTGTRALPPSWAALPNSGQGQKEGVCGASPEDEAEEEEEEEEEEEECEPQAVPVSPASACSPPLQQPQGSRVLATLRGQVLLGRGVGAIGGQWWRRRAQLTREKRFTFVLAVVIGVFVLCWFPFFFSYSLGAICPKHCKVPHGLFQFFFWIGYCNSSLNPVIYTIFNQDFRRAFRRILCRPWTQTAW

[5] = Rattus norvegicus, Cerebral cortex, 90 min

SMILES	IC50 [1] [nM]	IC50 [2, 5] [nM]	IC50 [3]	IC50 [4]	IC50 [2] [nM]
CO/C(O)=C1\C(C)=NC(C)=C(C(=O)OCCN(C)CC2COc3ccccc3O2)C1c1ccccc1[N+](=O)[O-] (stereo not drawn)	300	0.07	> 0.00001 M		
CC1=NC(C)=C(C(=O)OC(C)CN(C)CC2COc3ccccc3O2)C(c2cccc([N+](=O)[O-])c2)/C1=C(\O)OC(C)C.Cl (stereo not drawn)	3900		>> 0.00003 M	>> 1e-6 M	3.4
COC(=O)C1=C(C)NC(C)=C(C(=O)OCCN(C)C[C@H]2COc3ccccc3O2)[C@@H]1c1cccc([N+](=O)[O-])c1.Cl (stereo in doubt; 6a)	2400		0.00001 M		0.018
COC(=O)C1=C(C)NC(C)=C(C(=O)OCCN(C)C[C@H]2COc3ccccc3O2)[C@@H]1c1cccc([N+](=O)[O-])c1.Cl (stereo in doubt; 6b)	2300		> 0.00003 M		2.8

More lines, now with the values ahead:

IC50 [1] [nM]	IC50 [2, 5] [nM]	IC50 [3]	IC50 [4]	IC50 [2] [nM]	SMILES
41	0.6	0.00001 M			CO/C(O)=C1\C(C)=NC(C)=C(C(=O)OCCN2CCC(n3c(O)nc4ccccc43)CC2)C1c1cccc([N+](=O)[O-])c1 (stereo not drawn)
380	0.073	0.00007 M			CO/C(O)=C1\C(C)=NC(C)=C(C(=O)OCCN(C)C(C)COc2ccccc2)C1c1cccc([N+](=O)[O-])c1.Cl (stereo not drawn)
1000	0.05	>> 0.0001 M			CO/C(O)=C1\C(C)=NC(C)=C(C(=O)OC(C)CN(C)CC2COc3ccccc3O2)C1c1cccc([N+](=O)[O-])c1.Cl (stereo not drawn)
75000	3.8	> 0.0001 M			CO/C(O)=C1\C(C)=NC(C)=C(C(=O)OCCN(C)C(c2ccccc2)C2CCCCC2)C1c1cccc([N+](=O)[O-])c1.Cl (stereo not drawn)
500	0.1	0.00004 M			CO/C(O)=C1\C(C)=NC(C)=C(C(=O)OCCN(C)CC2COc3ccccc3O2)C1c1cccc([N+](=O)[O-])c1.Cl (stereo not drawn)
